Drawing on ChEMBL document CHEMBL4387741, “Optimization of novel reversible Bruton's tyrosine kinase inhibitors identified using Tethering-fragment-based screens” (Bioorg Med Chem, 2019), this text covers inhibition for two compounds.

Test [1] deals with Epidermal growth factor receptor (Homo sapiens) (UniProt P00533). Description: Inhibition of wild-type human partial length EGFR (R669 to V1011 residues) expressed in bacterial expression system at 1 uM by Kinomescan method relative to control.
The target in test [2] is Phosphatidylinositol 4,5-bisphosphate 3-kinase catalytic subunit alpha isoform (Homo sapiens) (UniProt P42336). Description: Inhibition of wild-type human partial length PIK3CA (R108 to N1068 residues) expressed in mammalian expression system at 1 uM by Kinomescan method relative to control.
Test [3] concerns the target Serine/threonine-protein kinase LATS1 (Homo sapiens) (UniProt O95835). In words: Inhibition of wild-type human partial length LATS1 (Q678 to V1130 residues) expressed in bacterial expression system at 1 uM by Kinomescan method relative to control.
The target in test [4] is Serine/threonine-protein kinase Chk1 (Homo sapiens) (UniProt O14757). Description: Inhibition of wild-type human partial length CHEK1 (M1 to G289 residues) expressed in bacterial expression system at 1 uM by Kinomescan method relative to control.
Test [5] addresses Phosphatidylinositol 4-phosphate 5-kinase type-1 gamma (Homo sapiens) (UniProt O60331). In words: Inhibition of wild-type human partial length PIP5K1C (M1 to T668 residues) expressed in mammalian expression system at 1 uM by Kinomescan method relative to control.
The target of test [6] is Microtubule-associated serine/threonine-protein kinase 1 (Homo sapiens) (UniProt Q9Y2H9). Description: Inhibition of wild-type human partial length MAST1 (S346 to V730 residues) expressed in mammalian expression system at 1 uM by Kinomescan method relative to control.
In test [7] the target is Serine/threonine-protein kinase 17A (Homo sapiens) (UniProt Q9UEE5). Description: Inhibition of wild-type human partial length DRAK1 (R32 to E363 residues) expressed in bacterial expression system at 1 uM by Kinomescan method relative to control.
In test [8] the target is Mitogen-activated protein kinase kinase kinase 14 (Homo sapiens) (UniProt Q99558). Description: Inhibition of wild-type human partial length NIK (L318 to P947 residues) expressed in mammalian expression system at 1 uM by Kinomescan method relative to control.
The target of test [9] is Interleukin-1 receptor-associated kinase 1 (Homo sapiens) (UniProt P51617). In words: Inhibition of wild-type human partial length IRAK1 (R194 to S712 residues) expressed in mammalian expression system at 1 uM by Kinomescan method relative to control.
Test [10] concerns the target Dual specificity protein kinase TTK (Homo sapiens) (UniProt P33981). In words: Inhibition of wild-type human partial length TTK (N505 to V798 residues) expressed in bacterial expression system at 1 uM by Kinomescan method relative to control.
Test [11] deals with Dual serine/threonine and tyrosine protein kinase (Homo sapiens) (UniProt Q6XUX3). In words: Inhibition of wild-type human full length RIPK5 (M1 to T929 residues) expressed in mammalian expression system at 1 uM by Kinomescan method relative to control.
The target of test [12] is 1-phosphatidylinositol 3-phosphate 5-kinase (Homo sapiens) (UniProt Q9Y2I7). In words: Inhibition of wild-type human partial length PIKFYVE (F1512 to C2098 residues) expressed in mammalian expression system at 1 uM by Kinomescan method relative to control.
Test [13] has as its target Atypical kinase COQ8A, mitochondrial (Homo sapiens) (UniProt Q8NI60). Description: Inhibition of wild-type human […] ADCK3 (M280 to Q647 residues) expressed in bacterial expression system at 1 uM by Kinomescan method relative to control.
Test [14] concerns the target Tyrosine-protein kinase TXK (Homo sapiens) (UniProt P42681). Description: Inhibition of wild-type human partial length TXK (L238 to W527 residues) expressed in bacterial expression system at 1 uM by Kinomescan method relative to control.
Test [15] concerns the target Ribosomal protein S6 kinase alpha-5 (Homo sapiens) (UniProt O75582). Description: Inhibition of wild-type human partial length N-terminal RPS6KA5 kinase domain 1 expressed in bacterial expression system at 1 uM by Kinomescan method relative to control.
The target of test [16] is Dual specificity mitogen-activated protein kinase kinase 1 (Homo sapiens) (UniProt Q02750). In words: Inhibition of wild-type human full length MEK1 (M1 to V393 residues) expressed in mammalian expression system at 1 uM by Kinomescan method relative to control.
Test [17] addresses Serine/threonine-protein kinase RIO3 (Homo sapiens) (UniProt O14730). In words: Inhibition of wild-type human full length RIOK3 (M1 to E519 residues) expressed in bacterial expression system at 1 uM by Kinomescan method relative to control.
In test [18] the target is Tyrosine-protein kinase Fgr (Homo sapiens) (UniProt P09769). In words: Inhibition of wild-type human partial length FGR (L233 to T529 residues) expressed in bacterial expression system at 10 uM by Kinomescan method relative to control.
For test [19], the target named is Tyrosine-protein kinase HCK (Homo sapiens) (UniProt P08631). Description: Inhibition of wild-type human full length HCK (M22 to P526 residues) expressed in bacterial expression system at 10 uM by Kinomescan method relative to control.
Test [20] addresses Tyrosine-protein kinase Tec (Homo sapiens) (UniProt P42680). In words: Inhibition of wild-type human partial length TEC (L341 to D620 residues) expressed in bacterial expression system at 10 uM by Kinomescan method relative to control.
For test [21], the target named is Dual serine/threonine and tyrosine protein kinase (Homo sapiens) (UniProt Q6XUX3). Description: Inhibition of wild-type human full length RIPK5 (M1 to T929 residues) expressed in mammalian expression system at 10 uM by Kinomescan method relative to control.
Test [22] has as its target Calcium/calmodulin-dependent protein kinase type 1D (Homo sapiens) (UniProt Q8IU85). Description: Inhibition of wild-type human partial length CAMK1D (M1 to K299 residues) expressed in bacterial expression system at 10 uM by Kinomescan method relative to control.
In test [23] the test system is Tyrosine-protein kinase ABL1 (Homo sapiens), P00519 [Q252H]. In words: Inhibition of human phosphorylated ABL1 Q252H mutant expressed in mammalian expression system at 10 uM by Kinomescan method relative to control.
The target in test [24] is Platelet-derived growth factor receptor beta (Homo sapiens) (UniProt P09619). In words: Inhibition of wild-type human partial length PDGFRB (V582 to Y1009 residues) expressed in bacterial expression system at 10 uM by Kinomescan method relative to control.
In test [25] the target is Serine/threonine-protein kinase WNK4 (Homo sapiens) (UniProt Q96J92). Description: Inhibition of wild-type human partial length WNK4 (A31 to D461 residues) expressed in mammalian expression system at 10 uM by Kinomescan method relative to control.
Test [26] has as its system Receptor-type tyrosine-protein kinase FLT3 (Homo sapiens), P36888 [UNDEFINED MUTATION]. In words: Inhibition of human partial length FLT3 ITD/D835V double mutant expressed in bacterial expression system at 10 uM by Kinomescan method relative to control.
Test [27] deals with Mitogen-activated protein kinase kinase kinase 5 (Homo sapiens) (UniProt Q99683). In words: Inhibition of wild-type human partial length ASK1 (E648 to S964 residues) expressed in bacterial expression system at 10 uM by Kinomescan method relative to control.

Chain of Dual serine/threonine and tyrosine protein kinase (Homo sapiens) (Q6XUX3 whole entry, the tested form may be a part): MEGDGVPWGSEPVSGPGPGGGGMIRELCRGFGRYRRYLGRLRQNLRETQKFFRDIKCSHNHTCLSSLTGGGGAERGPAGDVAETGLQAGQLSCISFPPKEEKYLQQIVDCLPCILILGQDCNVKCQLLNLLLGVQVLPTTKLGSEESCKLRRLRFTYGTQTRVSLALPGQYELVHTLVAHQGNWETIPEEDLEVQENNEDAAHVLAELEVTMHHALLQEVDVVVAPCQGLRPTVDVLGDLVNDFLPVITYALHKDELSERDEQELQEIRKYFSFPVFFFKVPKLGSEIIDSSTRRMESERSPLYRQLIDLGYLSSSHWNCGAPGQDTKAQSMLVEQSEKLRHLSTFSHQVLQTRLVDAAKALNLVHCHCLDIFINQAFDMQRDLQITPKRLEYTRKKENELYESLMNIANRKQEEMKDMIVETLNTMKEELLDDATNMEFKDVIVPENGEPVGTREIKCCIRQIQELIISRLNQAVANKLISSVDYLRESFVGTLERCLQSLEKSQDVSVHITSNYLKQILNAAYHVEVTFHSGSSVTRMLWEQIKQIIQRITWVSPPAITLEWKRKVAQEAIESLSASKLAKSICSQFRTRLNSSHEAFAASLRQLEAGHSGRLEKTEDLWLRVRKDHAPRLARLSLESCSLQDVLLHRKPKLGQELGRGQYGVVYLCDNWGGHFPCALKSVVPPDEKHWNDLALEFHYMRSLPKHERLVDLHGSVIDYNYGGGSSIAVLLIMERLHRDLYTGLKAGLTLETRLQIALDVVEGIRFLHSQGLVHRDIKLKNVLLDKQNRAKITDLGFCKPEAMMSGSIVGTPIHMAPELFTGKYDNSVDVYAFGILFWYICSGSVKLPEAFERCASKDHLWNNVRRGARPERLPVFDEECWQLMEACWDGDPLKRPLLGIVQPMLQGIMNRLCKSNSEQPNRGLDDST
Chain of Calcium/calmodulin-dependent protein kinase type 1D (Homo sapiens) (Q8IU85 whole entry, looked up, the tested form may be a part): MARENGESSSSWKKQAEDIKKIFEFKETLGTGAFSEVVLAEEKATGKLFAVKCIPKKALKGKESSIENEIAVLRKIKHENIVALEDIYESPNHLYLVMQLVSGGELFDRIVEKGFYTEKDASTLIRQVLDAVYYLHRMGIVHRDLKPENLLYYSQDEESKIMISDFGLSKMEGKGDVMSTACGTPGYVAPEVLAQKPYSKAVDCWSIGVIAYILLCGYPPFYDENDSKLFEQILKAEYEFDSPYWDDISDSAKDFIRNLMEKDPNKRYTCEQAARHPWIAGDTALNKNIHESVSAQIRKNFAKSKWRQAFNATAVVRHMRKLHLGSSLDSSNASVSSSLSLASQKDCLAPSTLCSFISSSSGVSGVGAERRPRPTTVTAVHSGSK
Chain of Receptor-type tyrosine-protein kinase FLT3 (Homo sapiens), P36888 [UNDEFINED MUTATION] (P36888 whole entry, looked up, stated change not applied, the tested form may be a part): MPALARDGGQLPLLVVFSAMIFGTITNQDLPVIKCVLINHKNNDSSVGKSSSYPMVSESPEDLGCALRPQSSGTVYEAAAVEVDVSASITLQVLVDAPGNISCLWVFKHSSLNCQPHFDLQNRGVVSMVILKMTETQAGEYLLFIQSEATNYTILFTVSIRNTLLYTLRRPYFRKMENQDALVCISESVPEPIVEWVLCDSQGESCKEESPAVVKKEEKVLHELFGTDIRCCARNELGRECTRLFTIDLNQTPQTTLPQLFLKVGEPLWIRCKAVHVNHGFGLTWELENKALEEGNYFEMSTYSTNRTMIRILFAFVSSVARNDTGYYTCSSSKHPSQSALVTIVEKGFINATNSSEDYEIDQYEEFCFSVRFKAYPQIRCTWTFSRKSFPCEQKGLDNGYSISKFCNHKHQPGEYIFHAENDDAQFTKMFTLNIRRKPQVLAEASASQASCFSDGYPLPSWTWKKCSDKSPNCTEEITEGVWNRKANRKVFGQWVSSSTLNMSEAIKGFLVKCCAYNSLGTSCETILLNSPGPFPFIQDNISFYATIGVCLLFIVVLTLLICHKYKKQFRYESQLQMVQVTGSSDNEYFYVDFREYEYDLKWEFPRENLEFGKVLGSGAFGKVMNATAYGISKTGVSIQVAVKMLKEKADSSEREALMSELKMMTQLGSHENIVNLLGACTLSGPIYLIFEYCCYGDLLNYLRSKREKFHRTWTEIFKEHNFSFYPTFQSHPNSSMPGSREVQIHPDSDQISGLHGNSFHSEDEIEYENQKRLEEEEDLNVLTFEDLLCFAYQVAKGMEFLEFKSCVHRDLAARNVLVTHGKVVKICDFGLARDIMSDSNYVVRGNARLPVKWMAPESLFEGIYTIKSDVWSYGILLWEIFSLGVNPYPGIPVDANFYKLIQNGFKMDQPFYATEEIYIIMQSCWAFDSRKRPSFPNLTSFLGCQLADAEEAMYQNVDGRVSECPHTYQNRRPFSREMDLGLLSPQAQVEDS
Chain of Tyrosine-protein kinase Fgr (Homo sapiens) (P09769 2-529 limits assumed): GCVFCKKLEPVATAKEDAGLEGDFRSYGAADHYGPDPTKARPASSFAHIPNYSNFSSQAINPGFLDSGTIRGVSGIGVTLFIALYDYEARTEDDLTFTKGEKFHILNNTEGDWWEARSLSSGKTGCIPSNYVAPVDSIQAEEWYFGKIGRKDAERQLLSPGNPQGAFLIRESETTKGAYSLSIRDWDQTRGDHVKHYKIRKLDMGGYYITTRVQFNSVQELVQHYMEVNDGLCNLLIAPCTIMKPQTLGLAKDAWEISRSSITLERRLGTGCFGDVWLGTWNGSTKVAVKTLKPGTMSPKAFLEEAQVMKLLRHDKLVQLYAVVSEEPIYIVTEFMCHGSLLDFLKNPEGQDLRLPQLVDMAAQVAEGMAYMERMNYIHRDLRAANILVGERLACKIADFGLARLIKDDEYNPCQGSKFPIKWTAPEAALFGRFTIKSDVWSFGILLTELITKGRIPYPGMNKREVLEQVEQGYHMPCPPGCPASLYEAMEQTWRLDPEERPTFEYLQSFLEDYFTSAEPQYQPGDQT
Chain of Interleukin-1 receptor-associated kinase 1 (Homo sapiens) (P51617 whole entry, looked up, the tested form may be a part): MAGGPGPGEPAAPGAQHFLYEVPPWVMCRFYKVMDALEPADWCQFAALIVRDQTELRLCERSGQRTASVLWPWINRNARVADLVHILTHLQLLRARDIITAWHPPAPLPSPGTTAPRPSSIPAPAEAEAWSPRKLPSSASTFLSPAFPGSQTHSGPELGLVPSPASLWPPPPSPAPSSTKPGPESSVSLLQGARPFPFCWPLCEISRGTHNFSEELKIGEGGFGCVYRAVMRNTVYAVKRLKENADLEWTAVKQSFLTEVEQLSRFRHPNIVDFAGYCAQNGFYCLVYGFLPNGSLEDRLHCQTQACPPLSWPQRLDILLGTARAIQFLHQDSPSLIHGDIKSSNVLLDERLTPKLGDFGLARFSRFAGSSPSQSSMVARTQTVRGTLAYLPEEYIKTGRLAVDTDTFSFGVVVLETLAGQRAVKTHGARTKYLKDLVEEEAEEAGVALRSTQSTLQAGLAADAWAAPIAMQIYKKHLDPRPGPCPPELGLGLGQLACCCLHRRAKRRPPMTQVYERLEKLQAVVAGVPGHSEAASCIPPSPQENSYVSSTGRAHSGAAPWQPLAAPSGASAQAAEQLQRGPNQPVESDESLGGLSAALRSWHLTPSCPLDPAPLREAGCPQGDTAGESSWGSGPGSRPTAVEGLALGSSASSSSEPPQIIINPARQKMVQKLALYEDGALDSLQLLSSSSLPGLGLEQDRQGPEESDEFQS
Chain of Tyrosine-protein kinase Tec (Homo sapiens) (P42680 whole entry, the tested form may be a part): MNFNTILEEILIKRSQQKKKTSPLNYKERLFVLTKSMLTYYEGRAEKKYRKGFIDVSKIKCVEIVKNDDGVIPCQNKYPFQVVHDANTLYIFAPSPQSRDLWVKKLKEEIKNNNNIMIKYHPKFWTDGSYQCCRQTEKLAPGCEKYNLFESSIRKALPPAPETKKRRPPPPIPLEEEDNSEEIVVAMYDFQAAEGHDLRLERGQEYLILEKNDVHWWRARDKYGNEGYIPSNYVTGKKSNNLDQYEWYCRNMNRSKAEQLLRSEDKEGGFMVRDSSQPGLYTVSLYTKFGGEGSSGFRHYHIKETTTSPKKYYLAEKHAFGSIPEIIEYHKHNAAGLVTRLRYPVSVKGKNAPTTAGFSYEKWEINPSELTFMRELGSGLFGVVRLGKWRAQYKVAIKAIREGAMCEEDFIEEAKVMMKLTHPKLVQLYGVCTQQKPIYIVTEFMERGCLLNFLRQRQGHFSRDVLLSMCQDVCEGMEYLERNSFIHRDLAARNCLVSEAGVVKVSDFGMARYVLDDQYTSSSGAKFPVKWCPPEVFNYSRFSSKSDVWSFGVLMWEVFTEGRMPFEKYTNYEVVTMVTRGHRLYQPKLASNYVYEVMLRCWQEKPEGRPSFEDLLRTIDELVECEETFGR
Chain of Dual specificity protein kinase TTK (Homo sapiens) (P33981 whole entry, the tested form may be a part): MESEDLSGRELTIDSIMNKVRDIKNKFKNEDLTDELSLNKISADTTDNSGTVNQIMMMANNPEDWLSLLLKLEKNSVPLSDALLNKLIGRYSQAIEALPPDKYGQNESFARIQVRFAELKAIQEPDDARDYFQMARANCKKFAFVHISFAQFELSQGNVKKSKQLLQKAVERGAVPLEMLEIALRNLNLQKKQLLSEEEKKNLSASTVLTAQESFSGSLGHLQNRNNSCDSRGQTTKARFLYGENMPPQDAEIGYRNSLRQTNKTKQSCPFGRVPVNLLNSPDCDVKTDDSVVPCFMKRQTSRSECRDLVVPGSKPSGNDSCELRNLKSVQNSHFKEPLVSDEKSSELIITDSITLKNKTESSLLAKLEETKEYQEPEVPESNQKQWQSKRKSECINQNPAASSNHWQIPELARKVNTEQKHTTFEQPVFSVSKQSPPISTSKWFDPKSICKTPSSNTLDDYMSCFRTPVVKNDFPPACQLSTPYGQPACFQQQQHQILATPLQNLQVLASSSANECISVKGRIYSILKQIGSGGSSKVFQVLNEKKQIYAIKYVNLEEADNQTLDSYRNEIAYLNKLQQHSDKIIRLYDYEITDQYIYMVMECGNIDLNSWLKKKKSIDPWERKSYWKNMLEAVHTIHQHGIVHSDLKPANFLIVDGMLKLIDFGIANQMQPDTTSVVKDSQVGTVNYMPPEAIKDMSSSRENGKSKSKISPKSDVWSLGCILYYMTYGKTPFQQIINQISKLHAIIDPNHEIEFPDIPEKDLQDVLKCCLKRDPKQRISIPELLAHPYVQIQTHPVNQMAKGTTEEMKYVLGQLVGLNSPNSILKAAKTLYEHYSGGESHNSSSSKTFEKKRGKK

On to `O=C(Nc1cccc([C@@H]2CN(c3ncnc4[nH]ccc34)CCN2CCO)c1)Nc1c(F)cccc1N1CCCC1`, for which the inhibition – broadly, the percentage by which the read-out fell short of the control – was 100% in [1]; 100% in test [2]; 52% in test [3]; 99% in test [4]; 70% in test [5]; 93% in [6]. Also, the inhibition in test [7] worked out at 82%; in test [8], 84%; in test [9] it was 92%; in [10], 98%; in test [11] it was 74%; in test [12], 91%. For the same compound, the inhibition in test [13] worked out at 100%; in test [14], 63%; in test [15], 99%; in test [16], 68%; in [17] it was 26%.

Regarding `O=C(Nc1cccc([C@H]2CCCN(c3ncnc4[nH]ccc34)C2)c1)Nc1ccccc1N1CCCC1`, the inhibition is 62% in [18]; 98% in test [19]; 73% in [20]; 49% in test [21]; 54% in test [22]; 83% in [23]. Moreover, the inhibition in test [24] was 0.1%; in test [25], 87%; in test [26] it was 8.3%; in test [27], 100%.
